# Data reported in US20100298141A1, “SUBSTITUTED PYRIDINE N-OXIDE HERBICIDES” (E. I. DU PONT DE NEMOURS AND COMPANY, priority 2007, published 2010).
# What was measured:
# morningglory = assay: Test A pre-/postemergence greenhouse test; format: in vivo, Ipomoea spp.; settings: for Morningglory plant response rating: 0 to 100 scale; for Plant response rating, Morningglory: 0 to 100 scale where 0 is no effect and 100 is complete control
# In short: (§1)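 Sowing in loam/sand; same-day pre (directed soil spray) and post (foliar, 1–2 leaf, 2–10 cm) treatment with surfactant-containing non-phytotoxic solvent formulation; ~10 days in greenhouse; eye-scored injury against untreated plants.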
# redroot pigweed = assay: Test A pre-/postemergence greenhouse test; format: in vivo, Amaranthus retroflexus; settings: for Pigweed plant response rating: 0 to 100 scale; for Plant response rating, Pigweed: 0 to 100 scale where 0 is no effect and 100 is complete control
# In short: as §1
# blackgrass = assay: Test C pre-/postemergence test; format: in vivo, Alopecurus myosuroides
# In short: (§2)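 Compounds in a non-phytotoxic solvent with surfactant applied preemergence to seeded pots and, at the same time, postemergence to plants 2–18 cm tall (1- to 4-leaf stage). Paddy tests: pots flooded to 3 cm, compound applied into the water, depth held throughout.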
# downy brome = assay: Test C pre-/postemergence test; format: in vivo, Bromus tectorum
# In short: as §2
# green foxtail = assay: Test C pre-/postemergence test; format: in vivo, Setaria viridis
# In short: as §2
# wild oat = assay: Test C pre-/postemergence test; format: in vivo, Avena fatua
# In short: as §2
# catchweed bedstraw = assay: Test C pre-/postemergence test; format: in vivo, Galium aparine
# Excerpt: Seeds of plant species selected from blackgrass (Alopecurus myosuroides), downy brome (Bromus tectorum), green foxtail (Setaria viridis), Italian ryegrass (Lolium multiflorum), wheat (Triticum aestivum), wild oat (Avena fatua), catchweed bedstraw (Galium aparine), Russian thistle (Salsola kali), […] (Cynodon dactylon), Surinam grass (Brachiaria decumbens), cocklebur (Xanthium strumarium), corn (Zea mays), crabgrass (Digitaria sanguinalis), woolly cupgrass (Eriochloa villosa), giant foxtail (Setaria faberii), Goosegrass (Eleusin indica), johnsongrass (Sorghum halepense), kochia (Kochia scoparia), lambsquarters (Chenopodium album), morningglory (Ipomoea coccinea), eastern black nightshade (Solanum ptycanthum), yellow nutsedge (Cyperus esculentus), pigweed (Amaranthus retroflexus), common ragweed (Ambrosia elation), soybean (Glycine max), common (oilseed) sunflower (Helianthus annuus), and velvetleaf (Abutilon theophrasti) were planted and treated preemergence with test chemicals formulated in a non-phytotoxic solvent mixture which included a surfactant. At the same time, plants selected from these crop and weed species and also winter barley (Hordeum vulgare), canarygrass (Phalaris minor), and chickweed (Stellaria media) were treated with postemergence applications of some of the test chemicals formulated in the same manner. Plants ranged in height from 2 to 18 cm (1- to 4-leaf stage) for postemergence treatments. […] At time of treatment, test pots were flooded to 3 cm above the soil surface, treated by application of test compounds directly to the paddy water, and then maintained at that water depth for the duration of the test. […] A dash (-) response means no test result.
# bermudagrass = assay: Test C pre-/postemergence test; format: in vivo, Cynodon dactylon
# In short: as §2
# cocklebur = assay: Test C pre-/postemergence test; format: in vivo, Xanthium strumarium
# In short: as §2
# woolly cupgrass = assay: Test C pre-/postemergence test; format: in vivo, Eriochloa villosa
# In short: as §2
# lambsquarters = assay: Test C pre-/postemergence test; format: in vivo, Chenopodium album
# In short: as §2
# yellow nutsedge = assay: Test C pre-/postemergence test; format: in vivo, Cyperus esculentus
# In short: as §2
# soybean = assay: Test C pre-/postemergence test; format: in vivo, Glycine max
# In short: as §2
# rice = assay: Test C flooded paddy test; format: in vivo, Oryza sativa; settings: Flood
# In short: (§3)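 Ratings were visual and made relative to untreated controls after 13 to 15 greenhouse days.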
# duck salad = assay: Test C flooded paddy test; format: in vivo, Heteranthera limosa; settings: Flood
# In short: as §3
# [1] = Postemergence, 125 g ai/ha, 0 is no effect, 100 is complete control
# [2] = Postemergence, 500 g ai/ha, 0 is no effect, 100 is complete control
# [3] = Preemergence, 125 g ai/ha, 0 no effect, 100 complete control
# [4] = 62 g ai/ha, Preemergence, scale 0 to 100
# [5] = Preemergence, 31 g ai/ha, scale 0 to 100 (0 no effect, 100 complete control)
# [6] = preemergence, 250 g ai/ha, scale 0 (no effect) to 100 (complete control)
# [7] = 125 g ai/ha, preemergence, scale 0 (no effect) to 100 (complete control)
# [8] = 31 g ai/ha, scale 0 to 100 (0 no effect, 100 complete control)
# [9] = 62 g ai/ha, scale 0 to 100, 0 no effect, 100 complete control, 13 to 15 days
# [10] = 125 g ai/ha, scale 0 to 100, 0 no effect, 100 complete control, 13 to 15 days
# [11] = 250 g ai/ha, scale 0 to 100, 0 no effect, 100 complete control, 13 to 15 days
# [12] = 31 g ai/ha, Preemergence, scale 0 to 100
# [13] = 62 g ai/ha, preemergence, scale 0 (no effect) to 100 (complete control)
# [14] = preemergence, 125 g ai/ha, scale 0 (no effect) to 100 (complete control)
# [15] = 250 g ai/ha, scale 0 to 100 (0 no effect, 100 complete control)
structure (smiles),measurement,setting,value
Cn1nc(C(F)(F)F)c(C[S+]([O-])c2cc(Br)cc[n+]2[O-])c1Cl (racemic) [Compound 35],Morningglory plant response rating,morningglory; [1],40
same,Morningglory plant response rating,morningglory; [2],70
same,Morningglory plant response rating,morningglory; [3],50
same,"Plant response rating, Morningglory","morningglory; Preemergence, 500 g ai/ha",80
same,Pigweed plant response rating,redroot pigweed; [1],60
same,Pigweed plant response rating,redroot pigweed; [2],80
same,Pigweed plant response rating,redroot pigweed; [3],100
same,"Plant response rating, Pigweed","redroot pigweed; Preemergence, 500 g ai/ha",100
same,Blackgrass plant response rating,blackgrass; [4],0
same,"Plant response rating, Blackgrass",blackgrass; [5],0
same,Blackgrass plant response rating,blackgrass; [6],50
same,"Bromegrass, Downy plant response rating",downy brome; [4],0
same,"Bromegrass, Downy plant response rating",downy brome; [7],0
same,"Plant response rating, Bromegrass, Downy",downy brome; [5],0
same,"Bromegrass, Downy plant response rating",downy brome; [6],30
same,"Foxtail, Green plant response rating",green foxtail; [4],80
same,"Foxtail, Green plant response rating",green foxtail; [7],100
same,"Plant response rating, Foxtail, Green",green foxtail; [5],0
same,"Foxtail, Green plant response rating",green foxtail; [6],100
same,"Oat, Wild plant response rating",wild oat; [4],45
same,"Oat, Wild plant response rating",wild oat; [7],80
same,"Plant response rating, Oat, Wild",wild oat; [5],10
same,"Oat, Wild plant response rating",wild oat; [6],90
same,Galium plant response rating,catchweed bedstraw; [4],100
same,Galium plant response rating,catchweed bedstraw; [7],100
same,"Plant response rating, Galium",catchweed bedstraw; [5],0
same,Galium plant response rating,catchweed bedstraw; [6],100
same,Bermudagrass plant response rating,"bermudagrass; 62 g ai/ha, Preemergence, scale 0 to 100 (0 no effect, 100 complete control)",100
same,Bermudagrass plant response rating,bermudagrass; [7],100
same,"Plant response rating, Bermudagrass",bermudagrass; [5],90
same,Bermudagrass plant response rating,bermudagrass; [6],100
same,Cocklebur plant response rating,cocklebur; [4],0
same,Cocklebur plant response rating,cocklebur; [7],0
same,Cocklebur plant response rating,cocklebur; [6],0
same,"Cupgrass, Woolly plant response rating",woolly cupgrass; [4],80
same,"Cupgrass, Woolly plant response rating",woolly cupgrass; [7],85
same,"Plant response rating, Cupgrass, Woolly",woolly cupgrass; [5],0
same,"Cupgrass, Woolly plant response rating",woolly cupgrass; [6],100
same,Lambsquarters plant response rating,lambsquarters; [4],100
same,Lambsquarters plant response rating,lambsquarters; [7],100
same,"Plant response rating, Lambsquarters",lambsquarters; [5],100
same,Lambsquarters plant response rating,lambsquarters; [6],100
same,"Nutsedge, Yellow plant response rating",yellow nutsedge; [4],60
same,"Nutsedge, Yellow plant response rating",yellow nutsedge; [7],90
same,"Plant response rating, Nutsedge, Yellow",yellow nutsedge; [5],0
same,"Nutsedge, Yellow plant response rating",yellow nutsedge; [6],100
same,Soybean plant response rating,soybean; [4],0
same,Soybean plant response rating,soybean; [7],10
same,"Plant response rating, Soybean",soybean; [5],0
same,Soybean plant response rating,soybean; [6],60
same,"Plant response rating, Rice",rice; [8],0
same,"Plant response rating, Rice",rice; [9],0
same,"Plant response rating, Rice",rice; [10],0
same,"Plant response rating, Rice",rice; [11],20
same,"Plant response rating, Ducksalad",duck salad; [8],60
same,"Plant response rating, Ducksalad",duck salad; [9],60
same,"Plant response rating, Ducksalad",duck salad; [10],85
same,"Plant response rating, Ducksalad",duck salad; [11],95
Cn1nc(C(F)(F)F)c(CS(=O)(=O)c2ccc(Cl)c[n+]2[O-])c1OC(F)F [Compound 7],Morningglory plant response rating,morningglory; [2],10
same,"Plant response rating, Morningglory","morningglory; Preemergence, 500 g ai/ha",30
same,Pigweed plant response rating,redroot pigweed; [1],60
same,Pigweed plant response rating,redroot pigweed; [2],70
same,Pigweed plant response rating,redroot pigweed; [3],100
same,"Plant response rating, Pigweed","redroot pigweed; Preemergence, 500 g ai/ha",100
same,Blackgrass plant response rating,blackgrass; [12],70
same,Blackgrass plant response rating,blackgrass; [13],70
same,"Plant response rating (0 to 100), Blackgrass","blackgrass; Preemergence, 250 g ai/ha",100
same,Blackgrass plant response rating,blackgrass; [14],85
same,"Bromegrass, Downy plant response rating",downy brome; [12],0
same,"Bromegrass, Downy plant response rating",downy brome; [13],0
same,"Plant response rating (0 to 100), Bromegrass, Downy","downy brome; Preemergence, 250 g ai/ha",0
same,"Bromegrass, Downy plant response rating",downy brome; [14],0
same,"Foxtail, Green plant response rating",green foxtail; [12],40
same,"Foxtail, Green plant response rating",green foxtail; [13],60
same,"Plant response rating (0 to 100), Foxtail, Green","green foxtail; Preemergence, 250 g ai/ha",100
same,"Foxtail, Green plant response rating",green foxtail; [14],80
same,"Oat, Wild plant response rating",wild oat; [12],0
same,"Oat, Wild plant response rating",wild oat; [13],30
same,"Plant response rating (0 to 100), Oat, Wild","wild oat; Preemergence, 250 g ai/ha",70
same,"Oat, Wild plant response rating",wild oat; [14],40
same,Galium plant response rating,catchweed bedstraw; [12],40
same,Galium plant response rating,catchweed bedstraw; [13],85
same,"Plant response rating (0 to 100), Galium","catchweed bedstraw; Preemergence, 250 g ai/ha",95
same,Galium plant response rating,catchweed bedstraw; [14],90
same,Bermudagrass plant response rating,bermudagrass; [12],100
same,Bermudagrass plant response rating,bermudagrass; [13],100
same,"Plant response rating (0 to 100), Bermudagrass","bermudagrass; Preemergence, 250 g ai/ha",100
same,Bermudagrass plant response rating,bermudagrass; [14],100
same,Cocklebur plant response rating,cocklebur; [12],0
same,Cocklebur plant response rating,cocklebur; [13],0
same,"Plant response rating (0 to 100), Cocklebur","cocklebur; Preemergence, 250 g ai/ha",0
same,Cocklebur plant response rating,cocklebur; [14],0
same,"Cupgrass, Woolly plant response rating",woolly cupgrass; [12],50
same,"Cupgrass, Woolly plant response rating",woolly cupgrass; [13],70
same,"Plant response rating (0 to 100), Cupgrass, Woolly","woolly cupgrass; Preemergence, 250 g ai/ha",100
same,"Cupgrass, Woolly plant response rating",woolly cupgrass; [14],98
same,Lambsquarters plant response rating,lambsquarters; [12],0
same,Lambsquarters plant response rating,lambsquarters; [13],0
same,"Plant response rating (0 to 100), Lambsquarters","lambsquarters; Preemergence, 250 g ai/ha",100
same,Lambsquarters plant response rating,lambsquarters; [14],80
same,"Nutsedge, Yellow plant response rating",yellow nutsedge; [12],0
same,"Nutsedge, Yellow plant response rating",yellow nutsedge; [13],0
same,"Plant response rating (0 to 100), Nutsedge, Yellow","yellow nutsedge; Preemergence, 250 g ai/ha",100
same,"Nutsedge, Yellow plant response rating",yellow nutsedge; [14],98
same,Soybean plant response rating,soybean; [12],0
same,Soybean plant response rating,soybean; [13],0
same,"Plant response rating (0 to 100), Soybean","soybean; Preemergence, 250 g ai/ha",30
same,Soybean plant response rating,soybean; [14],0
same,"Plant response rating, Rice",rice; [8],0
same,"Plant response rating, Rice",rice; [9],0
same,"Plant response rating, Rice",rice; [10],15
same,"Plant response rating, Rice",rice; [15],15
same,"Plant response rating, Ducksalad",duck salad; [8],30
same,"Plant response rating, Ducksalad",duck salad; [9],50
same,"Plant response rating, Ducksalad",duck salad; [10],75
same,"Plant response rating, Ducksalad",duck salad; [15],80
